Data from patent publication US20240132431A1, “METHOD FOR ALKYLATING ACIDIC FUNCTIONAL GROUP” (Chugai Seiyaku Kabushiki Kaisha, priority 2021, published 2024).

Molecular target: T1, Bcl-2 protein (Recombinant Human Bcl-2 Protein) (Homo sapiens, UniProt P10415)
T1 construct: purchased Novus NBP2-34889
Assay: Binding evaluation of mixture library compounds to Bcl-2 using AS-MS (affinity selection mass spectrometry)
Conditions: AS-MS, mixture library, Bcl-2, ASMS Ratio(%)=(A−C)/B×100; for ASMS ratio (%) n = 1: replicate n = 1; for ASMS ratio (%) n = 2: replicate n = 2
Summary of the method: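 Affinity selection MS: Bcl-2 20 μM + 1200-cpd mixture, […]/cpd, Tris pH 7.4 buffer w/ Tween-20, DTT; 1 h 23° C dark; P-2 spin SEC; MeCN/MeOH extraction; RP LC/MS. ASMS Ratio(%) = (A−C)/B×100.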

T1 sequence (P10415 whole entry): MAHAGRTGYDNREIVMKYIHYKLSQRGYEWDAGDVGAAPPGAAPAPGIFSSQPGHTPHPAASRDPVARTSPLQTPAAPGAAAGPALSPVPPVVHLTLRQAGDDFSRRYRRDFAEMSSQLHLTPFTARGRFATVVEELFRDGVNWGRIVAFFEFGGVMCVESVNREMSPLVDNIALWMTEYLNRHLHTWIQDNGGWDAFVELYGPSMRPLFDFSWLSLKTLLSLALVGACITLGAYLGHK

Row | ASMS ratio (%) n = 1 [%] | ASMS ratio (%) n = 2 [%] | Structure (SMILES)
1 | 0.0 | 0.0 | CCOc1cccc(C#Cc2cncc(C(=O)N3CCN(c4ccc(C(=O)NS(C)(=O)=O)nn4)CC3)c2)c1 [B2I009-01, 6-[4-[5-[2-(3-Ethoxyphenyl)ethynyl]pyridine-3-carbonyl]piperazin-1-yl]-N-methylsulfonylpyridazine-3-carboxamide]
2 | 0.0 | 0.0 | CCOc1cccc(-c2ccccc2CCC(=O)N2CCN(c3ccc(C(=O)NS(C)(=O)=O)nn3)CC2)c1 [B2I011-01, 6-[4-[3-[2-(3-Ethoxyphenyl)phenyl]propanoyl]piperazin-1-yl]-N-methylsulfonylpyridazine-3-carboxamide]
3 | −4.0 | −0.2 | CCOc1cncc(-c2ccccc2CCC(=O)N2CCN(c3ccc(C(=O)NS(C)(=O)=O)nn3)CC2)c1 [B2I012-01, 6-[4-[3-[2-(5-Ethoxypyridin-3-yl)phenyl]propanoyl]piperazin-1-yl]-N-methylsulfonylpyridazine-3-carboxamide]
4 | 0.0 | 0.0 | CCOc1cccc(-c2ccc(C(=O)N3CCN(c4ccc(C(=O)NS(C)(=O)=O)nn4)CC3)c3ccccc23)c1 [B2I013-01, 6-[4-[4-(3-Ethoxyphenyl)naphthalene-1-carbonyl]piperazin-1-yl]-N-methylsulfonylpyridazine-3-carboxamide]
5 | 1.0 | 2.3 | CCOc1cncc(-c2ccc(C(=O)N3CCN(c4ccc(C(=O)NS(C)(=O)=O)nn4)CC3)c3ccccc23)c1 [B2I014-01, 6-[4-[4-(5-Ethoxypyridin-3-yl)naphthalene-1-carbonyl]piperazin-1-yl]-N-methylsulfonylpyridazine-3-carboxamide]
6 | 0.0 | 0.0 | CCOc1cccc(-c2cc(C(=O)N3CCN(c4ccc(C(=O)NS(C)(=O)=O)nn4)CC3)cc(C(C)(C)C)c2)c1 [B2I015-01, 6-[4-[3-tert-Butyl-5-(3-ethoxyphenyl)benzoyl]piperazin-1-yl]-N-methylsulfonylpyridazine-3-carboxamide]
7 | 0.0 | 0.0 | CCOc1cncc(-c2cc(C(=O)N3CCN(c4ccc(C(=O)NS(C)(=O)=O)nn4)CC3)cc(C(C)(C)C)c2)c1 [B2I016-01, 6-[4-[3-tert-Butyl-5-(5-ethoxypyridin-3-yl)benzoyl]piperazin-1-yl]-N-methylsulfonylpyridazine-3-carboxamide]
8 | 0.0 | 0.0 | CCOc1cccc(-c2cc(C(=O)N3CCN(c4ccc(C(=O)NS(C)(=O)=O)nn4)CC3)cc(C(F)(F)F)c2)c1 [B2I017-01, 6-[4-[3-(3-Ethoxyphenyl)-5-(trifluoromethyl)benzoyl]piperazin-1-yl]-N-methylsulfonylpyridazine-3-carboxamide]
9 | 0.0 | 0.0 | CCOc1cncc(-c2cc(C(=O)N3CCN(c4ccc(C(=O)NS(C)(=O)=O)nn4)CC3)cc(C(F)(F)F)c2)c1 [B2I018-01, 6-[4-[3-(5-Ethoxypyridin-3-yl)-5-(trifluoromethyl)benzoyl]piperazin-1-yl]-N-methylsulfonylpyridazine-3-carboxamide]
10 | 0.0 |  | CCOc1cccc(C#Cc2cc(C(=O)N3CCN(c4ccc(C(=O)NS(C)(=O)=O)nn4)CC3)cc(C(F)(F)F)c2)c1 [B2I019-01, 6-[4-[3-[2-(3-Ethoxyphenyl)ethynyl]-5-(trifluoromethyl)benzoyl]piperazin-1-yl]-N-methylsulfonylpyridazine-3-carboxamide]
11 | 0.0 | 0.0 | CCOc1cncc(C#Cc2cc(C(=O)N3CCN(c4ccc(C(=O)NS(C)(=O)=O)nn4)CC3)cc(C(F)(F)F)c2)c1 [B2I020-01, 6-[4-[3-[2-(5-Ethoxypyridin-3-yl)ethynyl]-5-(trifluoromethyl)benzoyl]piperazin-1-yl]-N-methylsulfonylpyridazine-3-carboxamide]
12 | 0.0 | 0.0 | CCOc1cccc(-c2cnn(-c3cc(C(=O)N4CCN(c5ccc(C(=O)NS(C)(=O)=O)nn5)CC4)cc(C(F)(F)F)c3)c2)c1 [B2I021-01, 6-[4-[3-[4-(3-Ethoxyphenyl)pyrazol-1-yl]-5-(trifluoromethyl)benzoyl]piperazin-1-yl]-N-methylsulfonylpyridazine-3-carboxamide]
13 | 0.0 | 0.0 | CCOc1cncc(-c2cnn(-c3cc(C(=O)N4CCN(c5ccc(C(=O)NS(C)(=O)=O)nn5)CC4)cc(C(F)(F)F)c3)c2)c1 [B2I022-01, 6-[4-[3-[4-(5-Ethoxypyridin-3-yl)pyrazol-1-yl]-5-(trifluoromethyl)benzoyl]piperazin-1-yl]-N-methylsulfonylpyridazine-3-carboxamide]
14 | 0.0 | 0.0 | CCOc1cccc(-c2csc(C(=O)N3CCN(c4ccc(C(=O)NS(C)(=O)=O)cc4)CC3)c2)c1 [B2I023-01, 4-[4-[4-(3-Ethoxyphenyl)thiophene-2-carbonyl]piperazin-1-yl]-N-methylsulfonylbenzamide]
15 | 0.0 | 0.0 | CCOc1cncc(-c2csc(C(=O)N3CCN(c4ccc(C(=O)NS(C)(=O)=O)cc4)CC3)c2)c1 [B2I024-01, 4-[4-[4-(5-Ethoxypyridin-3-yl)thiophene-2-carbonyl]piperazin-1-yl]-N-methylsulfonylbenzamide]
16 | 0.0 | 0.0 | CCOc1cccc(-c2ccc(C(=O)N3CCN(c4ccc(C(=O)NS(C)(=O)=O)cc4)CC3)cc2C)c1 [B2I025-01, 4-[4-[4-(3-Ethoxyphenyl)-3-methylbenzoyl]piperazin-1-yl]-N-methylsulfonylbenzamide]
17 | −2.6 | −0.2 | CCOc1cncc(-c2ccc(C(=O)N3CCN(c4ccc(C(=O)NS(C)(=O)=O)cc4)CC3)cc2C)c1 [B2I026-01, 4-[4-[4-(5-Ethoxypyridin-3-yl)-3-methylbenzoyl]piperazin-1-yl]-N-methylsulfonylbenzamide]
18 | 0.0 | 0.0 | CCOc1cccc(-c2ccc(C(=O)N3CCN(c4ccc(C(=O)NS(C)(=O)=O)cc4)CC3)cc2F)c1 [B2I027-01, 4-[4-[4-(3-Ethoxyphenyl)-3-fluorobenzoyl]piperazin-1-yl]-N-methylsulfonylbenzamide]
19 | 0.0 | 0.0 | CCOc1cncc(-c2ccc(C(=O)N3CCN(c4ccc(C(=O)NS(C)(=O)=O)cc4)CC3)cc2F)c1 [B2I028-01, 4-[4-[4-(5-Ethoxypyridin-3-yl)-3-fluorobenzoyl]piperazin-1-yl]-N-methylsulfonylbenzamide]
20 | 0.0 | 0.0 | CCOc1cccc(C#Cc2ccccc2C(=O)N2CCN(c3ccc(C(=O)NS(C)(=O)=O)cc3)CC2)c1 [B2I029-01, 4-[4-[2-[2-(3-Ethoxyphenyl)ethynyl]benzoyl]piperazin-1-yl]-N-methylsulfonylbenzamide]
21 | 0.0 | 0.0 | CCOc1cncc(C#Cc2ccccc2C(=O)N2CCN(c3ccc(C(=O)NS(C)(=O)=O)cc3)CC2)c1 [B2I030-01, 4-[4-[2-[2-(5-Ethoxypyridin-3-yl)ethynyl]benzoyl]piperazin-1-yl]-N-methylsulfonylbenzamide]
